Assays:
[1] = molecular target: T1, Cloned human M1 receptor (CHRM1) (Homo sapiens, UniProt P11229); assay: CHRM1 Ca++ Flux Assay (HEK293 M1 cells, agonist mode); assay type: cell-based; conditions: for Emax: Percent Activity (PA), read-out: M1 FDSS PA %; for EC50: geometric mean if tested more than once, read-out: M1 FDSS EC50
T1 construct: expressed in transfected cells; host or cells: HEK293
T1 sequence (P11229 1-460): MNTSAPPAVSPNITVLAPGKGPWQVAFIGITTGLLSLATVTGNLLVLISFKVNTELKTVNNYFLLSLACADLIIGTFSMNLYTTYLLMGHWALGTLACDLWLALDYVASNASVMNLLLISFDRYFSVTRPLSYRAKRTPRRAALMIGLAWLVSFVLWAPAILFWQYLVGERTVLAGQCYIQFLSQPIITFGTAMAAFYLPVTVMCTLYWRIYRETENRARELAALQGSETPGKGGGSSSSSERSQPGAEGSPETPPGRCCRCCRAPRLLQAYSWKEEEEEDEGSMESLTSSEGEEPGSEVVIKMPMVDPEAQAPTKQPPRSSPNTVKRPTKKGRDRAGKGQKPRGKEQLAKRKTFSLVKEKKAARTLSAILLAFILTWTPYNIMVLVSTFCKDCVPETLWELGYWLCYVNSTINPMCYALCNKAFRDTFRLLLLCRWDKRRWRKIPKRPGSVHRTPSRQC
How it was run: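 HEK293 cells stably expressing human M1 were loaded with Ca++ dye, then given compounds (11-point dose, triplicate) in HBSS −Ca/−Mg, 20 mM HEPES. Ca++ flux was read over 3 min (agonist mode). Four-parameter curves were fitted, with activity as percent of carbachol EC100.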

[2] = molecular target: T2, human cloned CHRM5 receptor (Homo sapiens, UniProt P08912); assay: CHRM5 Ca++ Flux Assay (M5_CHO cells, agonist mode); assay type: cell-based; conditions: for Emax: Percent Activity (PA) measured to EC100 of Carbachol, read-out: M5 FDSS PA %; for EC50: agonist mode, geometric mean if tested more than once, read-out: M5 FDSS EC50
T2 construct: expressed in transfected cells; host or cells: CHO (M5_CHO)
T2 sequence (P08912 1-532): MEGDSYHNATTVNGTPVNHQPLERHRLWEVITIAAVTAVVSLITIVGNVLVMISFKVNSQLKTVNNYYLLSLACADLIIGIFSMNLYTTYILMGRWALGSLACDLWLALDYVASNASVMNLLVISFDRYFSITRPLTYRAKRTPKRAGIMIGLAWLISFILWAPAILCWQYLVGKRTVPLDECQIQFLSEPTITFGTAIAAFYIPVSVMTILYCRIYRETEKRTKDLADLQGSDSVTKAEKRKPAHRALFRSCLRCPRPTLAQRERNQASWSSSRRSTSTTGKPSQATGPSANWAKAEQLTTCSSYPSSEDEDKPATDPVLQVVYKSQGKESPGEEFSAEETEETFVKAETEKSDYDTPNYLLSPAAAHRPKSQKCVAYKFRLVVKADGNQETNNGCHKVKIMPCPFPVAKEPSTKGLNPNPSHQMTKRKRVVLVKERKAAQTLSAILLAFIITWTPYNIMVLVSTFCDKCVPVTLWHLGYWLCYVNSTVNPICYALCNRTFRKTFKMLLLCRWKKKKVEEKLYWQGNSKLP
How it was run: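 CHO-K1 cells stably expressing human M3 or M5 receptor, dye-loaded ≥1 h, treated with 11-point compound doses in triplicate; Ca++ flux read over 3 min (FDSS). Agonist-mode four-parameter fit; percent activity relative to carbachol EC100; repeat tests reported as geometric mean.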

Work on `CC1(COc2ccc(F)cc2C2CCN([C@@H]3COC4(C3)CN(c3nncs3)C4)CC2)COC1` [Example 2B, (S)-7-(4-(5-fluoro-2-((3-methyloxetan-3-yl)methoxy)phenyl)piperidin-1-yl)-2-(1,3,4-thiadiazol-2-yl)-5-oxa-2-azaspiro[3.4]octane] yielded an Emax [1] of 91%, an EC50 [1] of 1.14 µM and an Emax [2] of 0%. For the same molecule, the EC50 [2] was greater than 25 µM.
In the case of `Cc1nnc(COc2ccc(F)cc2C2CCN([C@@H]3COC4(C3)CN(c3nnco3)C4)CC2)s1` [Example 2E, (S)-7-(4-(5-fluoro-2-((5-methyl-1,3,4-thiadiazol-2-yl)methoxy)phenyl)piperidin-1-yl)-2-(1,3,4-oxadiazol-2-yl)-5-oxa-2-azaspiro[3.4]octane], the Emax [1] is reported as 112%, the EC50 [1] is reported as 0.116 µM and the Emax [2] is reported as 23%. For the same molecule, the EC50 [2] was 1.67 µM.
With `Cc1nnc(COc2ccc(F)cc2C2CCN([C@@H]3COC4(C3)CN(c3nnco3)C4)CC2)o1` [Example 2F, (S)-7-(4-(5-fluoro-2-((5-methyl-1,3,4-oxadiazol-2-yl)methoxy)phenyl)piperidin-1-yl)-2-(1,3,4-oxadiazol-2-yl)-5-oxa-2-azaspiro[3.4]octane] the Emax [1] was 103%, the EC50 [1] was 0.061 µM and the Emax [2] was 30%. The EC50 [2] was 3.65 µM.
`Cc1cc(COc2ccc(F)cc2C2CCN([C@@H]3COC4(C3)CN(c3nnco3)C4)CC2)on1` [Example 2G, (S)-7-(4-(5-fluoro-2-((3-methylisoxazol-5-yl)methoxy)phenyl)piperidin-1-yl)-2-(1,3,4-oxadiazol-2-yl)-5-oxa-2-azaspiro[3.4]octane] gave an Emax [1] of 89%, an EC50 [1] of 0.289 µM and an Emax [2] of 0%. It also gave an EC50 [2] greater than 25 µM.
Molecule `Fc1ccc(OCC2COC2)c(C2CCN([C@@H]3COC4(C3)CN(c3nnco3)C4)CC2)c1` [Example 2H, (S)-7-(4-(5-fluoro-2-(oxetan-3-ylmethoxy)phenyl)piperidin-1-yl)-2-(1,3,4-oxadiazol-2-yl)-5-oxa-2-azaspiro[3.4]octane] has an Emax [1] of 101%, an EC50 [1] of 0.542 µM and an Emax [2] of 0%. The EC50 [2] was greater than 25 µM.
Molecule `Fc1ccc(OCc2ncccn2)c(C2CCN([C@@H]3COC4(C3)CN(c3nnco3)C4)CC2)c1` [Example 2I, (S)-7-(4-(5-fluoro-2-(pyrimidin-2-ylmethoxy)phenyl)piperidin-1-yl)-2-(1,3,4-oxadiazol-2-yl)-5-oxa-2-azaspiro[3.4]octane] has an Emax [1] of 97%, an EC50 [1] of 0.098 µM and an Emax [2] of 0%. The EC50 [2] was greater than 25 µM.
For `Fc1ccc(OCC2(F)COC2)c(C2CCN([C@@H]3COC4(C3)CN(c3nnco3)C4)CC2)c1` [Example 2J, (S)-7-(4-(5-fluoro-2-((3-fluorooxetan-3-yl)methoxy)phenyl)piperidin-1-yl)-2-(1,3,4-oxadiazol-2-yl)-5-oxa-2-azaspiro[3.4]octane], the Emax [1] was 103%, the EC50 [1] was 0.411 µM and the Emax [2] was 0%. For the same molecule, the EC50 [2] was greater than 25 µM.
Molecule `CC1(COc2ccc(F)cc2C2CCN([C@@H]3COC4(C3)CN(c3nnco3)C4)CC2)COC1` [Example 2K, (S)-7-(4-(5-fluoro-2-((3-methyloxetan-3-yl)methoxy)phenyl)piperidin-1-yl)-2-(1,3,4-oxadiazol-2-yl)-5-oxa-2-azaspiro[3.4]octane] has an Emax [1] of 97%, an EC50 [1] of 1.36 µM and an Emax [2] of 0%. It also gave an EC50 [2] greater than 25 µM.
`Fc1ccc(OC2CC3(COC3)C2)c(C2CCN([C@@H]3COC4(C3)CN(c3nnco3)C4)CC2)c1` [Example 2L, (S)-7-(4-(2-((2-oxaspiro[3.3]heptan-6-yl)oxy)-5-fluorophenyl)piperidin-1-yl)-2-(1,3,4-oxadiazol-2-yl)-5-oxa-2-azaspiro[3.4]octane] showed an Emax [1] of 47%, an EC50 [1] of 2.22 µM and an Emax [2] of 0%. For the same molecule, the EC50 [2] was greater than 25 µM.
Work on `Fc1ccc(OC[C@H]2CCCO2)c(C2CCN([C@@H]3COC4(C3)CN(c3nnco3)C4)CC2)c1` [Example 2M, (S)-7-(4-(5-fluoro-2-(((R)-tetrahydrofuran-2-yl)methoxy)phenyl)piperidin-1-yl)-2-(1,3,4-oxadiazol-2-yl)-5-oxa-2-azaspiro[3.4]octane] yielded an Emax [1] of 7%, an EC50 [1] of 3.57 µM and an Emax [2] of 0%. The EC50 [2] was greater than 25 µM.
With `CCC1(COc2ccc(F)cc2C2CCN([C@@H]3COC4(C3)CN(c3nnco3)C4)CC2)COC1` [Example 2P, (S)-7-(4-(2-((3-ethyloxetan-3-yl)methoxy)-5-fluorophenyl)piperidin-1-yl)-2-(1,3,4-oxadiazol-2-yl)-5-oxa-2-azaspiro[3.4]octane] the Emax [1] was 71%, the EC50 [1] was 2.08 µM and the Emax [2] was 0%. The EC50 [2] was greater than 25 µM.
In the case of `Fc1ccc(OCC2CC3(COC3)C2)c(C2CCN([C@@H]3COC4(C3)CN(c3nnco3)C4)CC2)c1` [Example 2S, (S)-7-(4-(2-((2-oxaspiro[3.3]heptan-6-yl)methoxy)-5-fluorophenyl)piperidin-1-yl)-2-(1,3,4-oxadiazol-2-yl)-5-oxa-2-azaspiro[3.4]octane], the Emax [1] is reported as 53%, the EC50 [1] is reported as 5.41 µM and the Emax [2] is reported as 0%. For the same molecule, the EC50 [2] was greater than 25 µM.
Molecule `CCc1nnc(COc2ccc(F)cc2C2CCN([C@@H]3COC4(C3)CN(c3nnco3)C4)CC2)s1` [Example 2T, (S)-7-(4-(2-((5-ethyl-1,3,4-thiadiazol-2-yl)methoxy)-5-fluorophenyl)piperidin-1-yl)-2-(1,3,4-oxadiazol-2-yl)-5-oxa-2-azaspiro[3.4]octane] has an Emax [1] of 89%, an EC50 [1] of 0.063 µM and an Emax [2] of 0%. For the same molecule, the EC50 [2] was 0.73 µM.
Molecule `OC1(COc2ccc(F)cc2C2CCN([C@@H]3COC4(C3)CN(c3nnco3)C4)CC2)COC1` [Example 2U, (S)-3-((2-(1-(2-(1,3,4-oxadiazol-2-yl)-5-oxa-2-azaspiro[3.4]octan-7-yl)piperidin-4-yl)-4-fluorophenoxy)methyl)oxetan-3-ol] has an Emax [1] of 81%, an EC50 [1] of 0.223 µM and an Emax [2] of 0%. It also gave an EC50 [2] greater than 25 µM.
For `CC(C)(O)CCOc1cc(F)ccc1C1CCN([C@@H]2COC3(C2)CN(c2nncs2)C3)CC1` [Example 5V, (S)-4-(2-(1-(2-(1,3,4-thiadiazol-2-yl)-5-oxa-2-azaspiro[3.4]octan-7-yl)piperidin-4-yl)-5-fluorophenoxy)-2-methylbutan-2-ol], the Emax [1] was 79%, the EC50 [1] was 0.786 µM and the Emax [2] was 0%. The EC50 [2] was greater than 25 µM.
`Fc1ccc(OC2CC3(COC3)C2)c(C2CCN([C@@H]3COC4(C3)CN(c3nncs3)C4)CC2)c1` [Example 5W, (S)-7-(4-(2-((2-oxaspiro[3.3]heptan-6-yl)oxy)-5-fluorophenyl)piperidin-1-yl)-2-(1,3,4-thiadiazol-2-yl)-5-oxa-2-azaspiro[3.4]octane] was tested, and the Emax [1] was 68%, the EC50 [1] was 3.59 µM and the Emax [2] was 0%. The EC50 [2] was greater than 25 µM.
In the case of `Fc1ccc(OC[C@H]2CCOC2)c(C2CCN([C@@H]3COC4(C3)CN(c3nncs3)C4)CC2)c1` [Example 5X, (S)-7-(4-(5-fluoro-2-(((S)-tetrahydrofuran-3-yl)methoxy)phenyl)piperidin-1-yl)-2-(1,3,4-thiadiazol-2-yl)-5-oxa-2-azaspiro[3.4]octane], the Emax [1] is reported as 75%, the EC50 [1] is reported as 2.34 µM and the Emax [2] is reported as 0%. For the same molecule, the EC50 [2] was greater than 25 µM.
Molecule `CC(C)(O)COc1ccccc1C1CCN([C@@H]2COC3(C2)CN(c2ncns2)C3)CC1` [Example 5Y, (S)-1-(2-(1-(2-(1,2,4-thiadiazol-5-yl)-5-oxa-2-azaspiro[3.4]octan-7-yl)piperidin-4-yl)phenoxy)-2-methylpropan-2-ol] has an Emax [1] of 47%, an EC50 [1] of 1.99 µM and an Emax [2] of 0%. For the same molecule, the EC50 [2] was greater than 25 µM.
In the case of `Fc1ccc(OC2CCOCC2)c(C2CCN([C@@H]3COC4(C3)CN(c3ncon3)C4)CC2)c1` [Example 6A, (S)-7-(4-(5-fluoro-2-((tetrahydro-2H-pyran-4-yl)oxy)phenyl)piperidin-1-yl)-2-(1,2,4-oxadiazol-3-yl)-5-oxa-2-azaspiro[3.4]octane], the Emax [1] is reported as 53%, the EC50 [1] is reported as 0.887 µM and the Emax [2] is reported as 0%. For the same molecule, the EC50 [2] was greater than 25 µM.
